{"source": "patent EP1145714A1", "about": "“DRUGS” (Takeda Chemical Industries, Ltd., priority 1998, dated 2000)", "test_system": "acute and delayed vomiting induced by cisplatin in ferrets", "test": "Acute and delayed vomiting induced by cisplatin in ferrets, oral dosing once or twice daily", "assay_type": "in vivo", "conditions": "cisplatin 5 mg/kg i.p.", "procedure": "Male 4 to 6 ferrets (1.2 to 2.2 kg) per one group were used. Cisplatin was intraperitoneally given at 5 mg/5ml/kg. 30 minutes prior to cisplatin administration and 24 and 48 hours after cisplatin administration, predetermined doses of the compound No. 3 were orally given in case of dosing once daily. 30 minutes prior to cisplatin administration and 12, 24, 36, 48 and 60 hours after cisplatin administration, predetermined doses of the compound No. 3 were orally given in case of dosing twice daily. 30 minutes prior to the dosing of the compound No. 3, a small amount of a feed was given to the animals in any of the cases. Similarly, a predetermined volume of 0.5 % methyl cellulose solution was similarly given orally to a control animal group under no fasting. A predetermined dose of ondansetron was orally given to the animals under fasting. To a control animal group of ondansetron, a predetermined volume of physiological saline was orally given to the animals under fasting. The frequency of vomiting was counted in number, up to 72 hours after cisplatin administration.\nThe compound No. 3 was suspended in 0.5 % methyl cellulose solution, for oral dosing at predetermined doses at a ratio of 1 ml per 1 kg body weight. An injection of ondansetron at 0.2 w/v % concentration was orally given at a predetermined volume. Additionally, 0.5 % methyl cellulose solution was orally given at a ratio of 1 ml per 1 kg body weight, while physiological saline was orally given at a ratio of 0.5 to 1.5 ml per 1 kg body weight. The data relating to the frequency of vomiting, the time period (latency) until first vomiting and the time period from the occurrence of vomiting to the termination thereof were statistically analyzed by the Dunnett test, with reference to the difference from the control group.\nThe acute vomiting suppression ratio, delayed vomiting suppression ratio and total vomiting suppression ratio were calculated by the following formula. [Frequency of retching or vomiting in control] - [Frequency of retching or vomiting in animals dosed with compound No. 3] / [Frequency of retching or vomiting in control] x 100 (%) [formula]", "key": {"[1]": {"conditions": "1 mg/kg p.o. twice daily, listed as compound No. 3"}, "[2]": {"conditions": "3 mg/kg p.o. twice daily, listed as compound No. 3"}, "[3]": {"conditions": "10 mg/kg p.o. once daily, listed as compound No. 3"}}}
{"compound": "Cc1ccc(-c2c3n(c(=O)c4ncccc24)CC[C@@H](C)CN(Cc2cc(C(F)(F)F)cc(C(F)(F)F)c2)C3=O)cc1", "note": "[Cpd. No.3, (9R)-7-[3,5-bis(trifluoromethyl)benzyl]-6,7,8,9,10,11-hexahydro-9-methyl-5-(4-methylphenyl)-6,13-dioxo-13H-[1,4]diazocino[2,1-g][1,7]naphthylidine]", "values": [{"measurement": "Total vomiting suppression ratio (0 to 72 hours after cisplatin dosing)", "setting": "1 mg/kg p.o. twice daily", "value": 54, "unit": "% b"}, {"measurement": "Delayed vomiting suppression ratio (24 to 72 hours after cisplatin dosing)", "setting": "[1]", "value": 70, "unit": "%"}, {"measurement": "Total vomiting suppression ratio (0 to 72 hours after cisplatin dosing)", "setting": "[1]", "value": 54, "unit": "%"}, {"measurement": "Duration (in hour; mean ± SD)", "setting": "1 mg/kg × 2 p.o., twice daily", "value": "64.8 ± 2.2", "unit": "h"}, {"measurement": "Latency (in hour; mean ± SD)", "setting": "1 mg/kg × 2 p.o., twice daily", "value": "3.4 ± 1.1", "unit": "h"}, {"measurement": "On day 0 (0-24 hours): frequency of retching and vomiting (mean ± SD)", "setting": "1 mg/kg × 2 p.o., twice daily", "value": "71.8 ± 20.6"}, {"measurement": "On day 0 (0-24 hours): number of ferrets with vomiting/ number of tested ferrets", "setting": "1 mg/kg × 2 p.o., twice daily", "value": "4/4"}, {"measurement": "On days 1-2(24-48 hours): frequency of retching and vomiting (mean ± SD)", "setting": "1 mg/kg × 2 p.o., twice daily", "value": "108.0 ± 9.6", "unit": "b"}, {"measurement": "On days 1-2(24-48 hours): number of ferrets with vomiting/ number of tested ferrets", "setting": "1 mg/kg × 2 p.o., twice daily", "value": "4/4"}, {"measurement": "Total frequency of retching and vomiting (on days 0-2; 0-72 hours)", "setting": "1 mg/kg × 2 p.o., twice daily", "value": "179.8 ± 21.0", "unit": "b"}, {"measurement": "Delayed vomiting suppression ratio (0 to 72 hours after cisplatin dosing)", "setting": "3 mg/kg p.o. once daily, listed as compound No. 3", "value": 42, "unit": "%"}, {"measurement": "Acute vomiting suppression ratio (0 to 24 hours after cisplatin dosing)", "setting": "3 mg/kg p.o. twice daily", "value": 82, "unit": "% NS"}, {"measurement": "Delayed vomiting suppression ratio (24 to 72 hours after cisplatin dosing)", "setting": "3 mg/kg p.o. twice daily", "value": 59, "unit": "% b"}, {"measurement": "Total vomiting suppression ratio (0 to 72 hours after cisplatin dosing)", "setting": "3 mg/kg p.o. twice daily", "value": 61, "unit": "% b"}, {"measurement": "Acute vomiting suppression ratio (0 to 24 hours after cisplatin dosing)", "setting": "[2]", "value": 82, "unit": "%"}, {"measurement": "Delayed vomiting suppression ratio (24 to 72 hours after cisplatin dosing)", "setting": "[2]", "value": 59, "unit": "%"}, {"measurement": "Acute vomiting suppression ratio (0 to 24 hours after cisplatin dosing)", "setting": "3 mg/kg p.o., once daily", "value": 48, "unit": "% NS"}, {"measurement": "Delayed vomiting suppression ratio (0 to 72 hours after cisplatin dosing)", "setting": "3 mg/kg p.o., once daily", "value": 42, "unit": "% a"}, {"measurement": "Delayed vomiting suppression ratio (24 to 72 hours after cisplatin dosing)", "setting": "3 mg/kg p.o., once daily", "value": 40, "unit": "% NS"}, {"measurement": "Duration (in hour; mean ± SD)", "setting": "3 mg/kg p.o., once daily", "value": "61.2 ± 1.2", "unit": "h"}, {"measurement": "Latency (in hour; mean ± SD)", "setting": "3 mg/kg p.o., once daily", "value": "7.8 ± 1.1", "unit": "h"}, {"measurement": "On day 0 (0-24 hours): frequency of retching and vomiting (mean ± SD)", "setting": "3 mg/kg p.o., once daily", "value": "56.8 ± 18.4"}, {"measurement": "On day 0 (0-24 hours): number of ferrets with vomiting/ number of tested ferrets", "setting": "3 mg/kg p.o., once daily", "value": "4/4"}, {"measurement": "On days 1-2(24-48 hours): frequency of retching and vomiting (mean ± SD)", "setting": "3 mg/kg p.o., once daily", "value": "209.5±23.6"}, {"measurement": "On days 1-2(24-48 hours): number of ferrets with vomiting/ number of tested ferrets", "setting": "3 mg/kg p.o., once daily", "value": "4/4"}, {"measurement": "Total frequency of retching and actual vomiting (on days 0-2; 0-72 hours)", "setting": "3 mg/kg p.o., once daily", "value": "266.3 ± 20.6", "unit": "a"}, {"measurement": "Duration (in hour; mean ± SD)", "setting": "3 mg/kg × 2 p.o., twice daily", "value": "40.9 ± 13.9", "unit": "h"}, {"measurement": "Latency (in hour; mean ± SD)", "setting": "3 mg/kg × 2 p.o., twice daily", "value": "25.8 ± 10.7", "unit": "h"}, {"measurement": "On day 0 (0-24 hours): frequency of retching and vomiting (mean ± SD)", "setting": "3 mg/kg × 2 p.o., twice daily", "value": "6.0 ± 4.5"}, {"measurement": "On day 0 (0-24 hours): number of ferrets with vomiting/ number of tested ferrets", "setting": "3 mg/kg × 2 p.o., twice daily", "value": "2/4"}, {"measurement": "On days 1-2(24-48 hours): frequency of retching and vomiting (mean ± SD)", "setting": "3 mg/kg × 2 p.o., twice daily", "value": "145.0 ± 50.5", "unit": "b"}, {"measurement": "On days 1-2(24-48 hours): number of ferrets with vomiting/ number of tested ferrets", "setting": "3 mg/kg × 2 p.o., twice daily", "value": "4/4"}, {"measurement": "Total frequency of retching and vomiting (on days 0-2; 0-72 hours)", "setting": "3 mg/kg × 2 p.o., twice daily", "value": "150.8 ± 53.1", "unit": "b"}, {"measurement": "Acute vomiting suppression ratio (0 to 24 hours after cisplatin dosing)", "setting": "[3]", "value": 83, "unit": "%"}, {"measurement": "Delayed vomiting suppression ratio (24 to 72 hours after cisplatin dosing)", "setting": "[3]", "value": 65, "unit": "%"}, {"measurement": "Acute vomiting suppression ratio (0 to 24 hours after cisplatin dosing)", "setting": "10 mg/kg p.o., once daily", "value": 83, "unit": "% NS"}, {"measurement": "Delayed vomiting suppression ratio (0 to 72 hours after cisplatin dosing)", "setting": "10 mg/kg p.o., once daily", "value": 70, "unit": "% b"}, {"measurement": "Delayed vomiting suppression ratio (24 to 72 hours after cisplatin dosing)", "setting": "10 mg/kg p.o., once daily", "value": 65, "unit": "% a"}, {"measurement": "Duration (in hour; mean ± SD)", "setting": "10 mg/kg p.o., once daily", "value": "51.4 ± 7.0", "unit": "a hour"}, {"measurement": "Effect on delayed vomiting induced by cisplatin (in words)", "setting": "10 mg/kg p.o., once daily", "value": "prominently suppressed"}, {"measurement": "Latency (in hour; mean ± SD)", "setting": "10 mg/kg p.o., once daily", "value": "16.2 ± 5.6", "unit": "h"}, {"measurement": "On day 0 (0-24 hours): frequency of retching and vomiting (mean ± SD)", "setting": "10 mg/kg p.o., once daily", "value": "19.0 ± 11.0", "unit": "b"}, {"measurement": "On day 0 (0-24 hours): number of ferrets with vomiting/ number of tested ferrets", "setting": "10 mg/kg p.o., once daily", "value": "3/4"}, {"measurement": "On days 1-2(24-48 hours): frequency of retching and vomiting (mean ± SD)", "setting": "10 mg/kg p.o., once daily", "value": "120.5 ± 5.0", "unit": "a"}, {"measurement": "On days 1-2(24-48 hours): number of ferrets with vomiting/ number of tested ferrets", "setting": "10 mg/kg p.o., once daily", "value": "4/4"}, {"measurement": "Total frequency of retching and actual vomiting (on days 0-2; 0-72 hours)", "setting": "10 mg/kg p.o., once daily", "value": "139.5 ± 8.3", "unit": "b"}]}
